Earlier results as cited in paper PMC12833858 (Journal of Medicinal Chemistry, 2026).

Experiments:
Aurora A [1] = target: T1, Aurora A (Homo sapiens, UniProt O14965); parameters: method as in Adhikari et al.; conditions: isothermal titration calorimetry, n = 4; ref Adhikari et al.; read-out: KD Aurora A (ITC)
T1 sequence (O14965 1-403): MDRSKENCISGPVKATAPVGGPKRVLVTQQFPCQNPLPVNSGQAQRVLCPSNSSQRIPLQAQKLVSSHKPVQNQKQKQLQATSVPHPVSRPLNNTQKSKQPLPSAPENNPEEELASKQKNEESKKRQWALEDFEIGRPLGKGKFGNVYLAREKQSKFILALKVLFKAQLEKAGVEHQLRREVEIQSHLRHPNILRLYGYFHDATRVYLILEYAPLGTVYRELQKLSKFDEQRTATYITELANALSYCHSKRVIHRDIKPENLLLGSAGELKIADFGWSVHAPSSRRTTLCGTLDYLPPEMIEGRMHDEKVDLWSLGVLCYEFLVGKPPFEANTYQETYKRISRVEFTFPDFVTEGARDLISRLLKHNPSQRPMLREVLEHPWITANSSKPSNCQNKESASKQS

Aurora A [2] = target: T1, Aurora A; parameters: expressed in transfected cells; conditions: reported value, HiBiT assay in MV4-11 pediatric leukemia cells

COc1cc(Nc2ncc3c(n2)-c2ccc(Cl)cc2C(c2c(F)cccc2OC)=NC3)ccc1C(=O)NCCOCCOCCNC(=O)COc1cccc2c1C(=O)N(C1CCC(=O)NC1=O)C2=O (centres unmarked) [JB170]
Kd (Aurora A [1]): 375 ± 22 nM | DC50 (Aurora A [2]): 28 nM
